Results: patent US8785614B2, “Aberrantly methylated genes in pancreatic cancer” (The Johns Hopkins University, priority 2003, dated 2014)
Read-outs that look alike come from different tables or passages of the source.

Tests used:
[1] = tested on: AsPC1 pancreatic cancer cell line
Method: (§1) Mock-treated cells were cultured with the equivalent volume of PBS alone.
(§2) Total RNA was isolated from cultured cells using TRIZOL reagent (invitrogen, Carlsbad, Calif.) and purified using RNeasy Mini Kit (Qiagen, Valencia, Calif.). First- and second-stranded cDNA was synthesized from 10 μg of total RNA using 17-dT) primer (Genset Corp., La Jolla, Calif.) and Superscript Choice system (Invitrogen). Labeled cRNA was synthesized from the purified cDNA by in vitro transcription reaction using the BioArray High Yield RNA Transcript Labeling Kit (Enzo Diagnostics, Inc., Farmingdale, N.Y.) at 37° C. for 6 h. The cRNA was fragmented at 94° C. for 35 min. in a fragmentation buffer [40 mM Tris-acetate @ pH 8.1, 100 mM potassium acestate, and 30 mM magnesium acetate]. The fragmented cRNA was then hybridized to the Human Genome U133A chips (Affymetrix, Santa Clara, Calif.) with 18462 unique gene/EST transcripts at 45° C. for 16 h. The washing and staining procedure was performed in the Affymetrix Fluidics Station according to the manufacturer's instructions. The probes were then scanned using a laser scanner, and signal intensity for each transcript (background-subtracted and adjusted for noise) was calculated using Microarray Suite Software 5.0 (Affymetrix).
(§3) Fold change analysis of signal intensities obtained from oligonucleotide microarrays between the two treatment groups was performed using Data Mining software (Afrymetrix).
(§4) The global changes in gene expression proxies induced by 5Aza-dC in four pancreatic cancer cell lines (AsPCl, Hs766T, MiaPaCa2, and Panel) were determined using the Afrymetrix U133 oligonucleotide microarrays with 18462 probes sets (transcripts) covering over 13000 full-length sequences of known genes.

[2] = tested on: Hs766T pancreatic cancer cell line
Method: as §1, §2, §3, §4

## Nc1ncn([C@H]2C[C@H](O)[C@@H](CO)O2)c(=O)n1 [5Aza-dC, 5 aza 2′ deoxycytidine]
[1]; ANGPT2, AsPC1
  Fold-change after 5Aza-dC treatment: 6.15 fold
[1]; AsPC1
  transcripts with >5-fold increase, share of the 18462 transcripts analyzed: 1.2%
[1]; AsPC1, vs mock-treated
  transcripts with substantial increase (>5-fold) in signal intensities: 225 transcripts
[1]; BARD1, AsPC1
  Fold-change after 5Aza-dC treatment: −1.07 fold
[1]; BNIP3, AsPC1
  Fold-change after 5Aza-dC treatment: 6.12 fold
[1]; BST2, AsPC1
  Fold-change after 5Aza-dC treatment: 1.97 fold
[1]; CACNA1G, AsPC1
  Fold-change after 5Aza-dC treatment: 1.83 fold
[1]; CCNE2, AsPC1
  Fold-change after 5Aza-dC treatment: 1.48 fold
[1]; CDKN1A (p21), AsPC1
  Fold-change after 5Aza-dC treatment: 2.21 fold
[1]; CDKN1C, AsPC1
  Fold-change after 5Aza-dC treatment: 0.6 fold
[1]; CLDN5, AsPC1
  Fold-change after 5Aza-dC treatment: 22.34 fold
[1]; CSF1, AsPC1
  Fold-change after 5Aza-dC treatment: 1.12 fold
[1]; DR3, AsPC1
  Fold-change after 5Aza-dC treatment: 1.47 fold
[1]; FOXE1, AsPC1
  Fold-change after 5Aza-dC treatment: 3.51 fold
[1]; GAGE1, AsPC1
  Fold-change after 5Aza-dC treatment: −0.54 fold
[1]; GAGE4, AsPC1
  Fold-change after 5Aza-dC treatment: 15.66 fold
[1]; GAGE6, AsPC1
  Fold-change after 5Aza-dC treatment: 15.59 fold
[1]; GAGE7, AsPC1
  Fold-change after 5Aza-dC treatment: 14.08 fold
[1]; HOXA1, AsPC1
  Fold-change after 5Aza-dC treatment: 25.8 fold
[1]; IGF2, AsPC1
  Fold-change after 5Aza-dC treatment: 0.55 fold
[1]; IL1R1, AsPC1
  Fold-change after 5Aza-dC treatment: 7.51 fold
[1]; ISG20, AsPC1
  Fold-change after 5Aza-dC treatment: −1.12 fold
[1]; JPH3, AsPC1
  Fold-change after 5Aza-dC treatment: 1.27 fold
[1]; KLK10, AsPC1
  Fold-change after 5Aza-dC treatment: 1.03 fold
[1]; LDOC1, AsPC1
  Fold-change after 5Aza-dC treatment: 8.99 fold
[1]; LHX1, AsPC1
  Fold-change after 5Aza-dC treatment: 5.22 fold
[1]; MAGE1, AsPC1
  Fold-change after 5Aza-dC treatment: 1.52 fold
[1]; MATN1, AsPC1
  Fold-change after 5Aza-dC treatment: −1.44 fold
[1]; NEFH, AsPC1
  Fold-change after 5Aza-dC treatment: 2.94 fold
[1]; NPTX2, AsPC1
  Fold-change after 5Aza-dC treatment: 13.97 fold
[1]; PAX6, AsPC1
  Fold-change after 5Aza-dC treatment: 8.94 fold
[1]; PDYN, AsPC1
  Fold-change after 5Aza-dC treatment: 1.33 fold
[1]; PLAT, AsPC1
  Fold-change after 5Aza-dC treatment: −1.15 fold
[1]; PLEK2, AsPC1
  Fold-change after 5Aza-dC treatment: 1.37 fold
[1]; SARP2, AsPC1
  Fold-change after 5Aza-dC treatment: −1.89 fold
[1]; SMARCA1, AsPC1
  Fold-change after 5Aza-dC treatment: 7.89 fold
[1]; ST14, AsPC1
  Fold-change after 5Aza-dC treatment: −1.21 fold
[1]; TIMP3, AsPC1
  Fold-change after 5Aza-dC treatment: 11.89 fold
[1]; TJP2, AsPC1
  Fold-change after 5Aza-dC treatment: −1.24 fold
[1]; TNF, AsPC1
  Fold-change after 5Aza-dC treatment: −1.17 fold
[1]; UCHL1, AsPC1
  Fold-change after 5Aza-dC treatment: 6.62 fold
[1]; WNT7A, AsPC1
  Fold-change after 5Aza-dC treatment: 2.7 fold
[1]; XAGE-1, AsPC1
  Fold-change after 5Aza-dC treatment: 28.59 fold
[1]; granulocytemacrophage colony-stimulating factor (M11734), AsPC1
  Fold-change after 5Aza-dC treatment: 1.44 fold
[1]; interferon, alpha-inducible protein (NM_022873), AsPC1
  Fold-change after 5Aza-dC treatment: 4.48 fold
[1]; p53-induced protein (PIGII), AsPC1
  Fold-change after 5Aza-dC treatment: −1.22 fold
[1]; reprimo, AsPC1
  Fold-change after 5Aza-dC treatment: 1.66 fold
[1]; stratifin (14-3-3 sigma), AsPC1
  Fold-change after 5Aza-dC treatment: −1.48 fold
[1]; stromal antigen 3 (STAG5), AsPC1
  Fold-change after 5Aza-dC treatment: 14.06 fold
[1]; testin, AsPC1
  Fold-change after 5Aza-dC treatment: −1.23 fold
[2]; ANGPT2, Hs766T
  Fold-change after 5Aza-dC treatment: −0.44 fold
[2]; BARD1, Hs766T
  Fold-change after 5Aza-dC treatment: 5.21 fold
[2]; BNIP3, Hs766T
  Fold-change after 5Aza-dC treatment: −1.75 fold
[2]; BST2, Hs766T
  Fold-change after 5Aza-dC treatment: 1.36 fold
[2]; CACNA1G, Hs766T
  Fold-change after 5Aza-dC treatment: 0.5 fold
[2]; CCNE2, Hs766T
  Fold-change after 5Aza-dC treatment: 5.28 fold
[2]; CDH3, Hs766T
  Fold-change after 5Aza-dC treatment: 0.89 fold
[2]; CDKN1A (p21), Hs766T
  Fold-change after 5Aza-dC treatment: 1.04 fold
[2]; CDKN1C, Hs766T
  Fold-change after 5Aza-dC treatment: 5.42 fold
[2]; CLDN5, Hs766T
  Fold-change after 5Aza-dC treatment: 1.21 fold
[2]; CSF1, Hs766T
  Fold-change after 5Aza-dC treatment: 5.75 fold
[2]; DR3, Hs766T
  Fold-change after 5Aza-dC treatment: −1.46 fold
[2]; FOXE1, Hs766T
  Fold-change after 5Aza-dC treatment: 5.63 fold
[2]; GAGE1, Hs766T
  Fold-change after 5Aza-dC treatment: 0.48 fold
[2]; GAGE3, Hs766T
  Fold-change after 5Aza-dC treatment: −2.57 fold
[2]; GAGE4, Hs766T
  Fold-change after 5Aza-dC treatment: −1.1 fold
[2]; GAGE6, Hs766T
  Fold-change after 5Aza-dC treatment: 1.09 fold
[2]; GAGE7, Hs766T
  Fold-change after 5Aza-dC treatment: −1.12 fold
[2]; HOXA1, Hs766T
  Fold-change after 5Aza-dC treatment: −1.61 fold
[2]; Hs766T
  transcripts with >5-fold increase, share of the 18462 transcripts analyzed: 0.9%
[2]; Hs766T, vs mock-treated
  transcripts with substantial increase (>5-fold) in signal intensities: 167 transcripts
[2]; IGF2, Hs766T
  Fold-change after 5Aza-dC treatment: −0.41 fold
[2]; IL1R1, Hs766T
  Fold-change after 5Aza-dC treatment: −2.59 fold
[2]; ISG20, Hs766T
  Fold-change after 5Aza-dC treatment: 1.02 fold
[2]; JPH3, Hs766T
  Fold-change after 5Aza-dC treatment: 5.27 fold
[2]; KLK10, Hs766T
  Fold-change after 5Aza-dC treatment: 1.16 fold
[2]; LDOC1, Hs766T
  Fold-change after 5Aza-dC treatment: −1.86 fold
[2]; LHX1, Hs766T
  Fold-change after 5Aza-dC treatment: 1.92 fold
[2]; MAGE1, Hs766T
  Fold-change after 5Aza-dC treatment: 4.45 fold
[2]; MATN1, Hs766T
  Fold-change after 5Aza-dC treatment: 6.83 fold
[2]; NEFH, Hs766T
  Fold-change after 5Aza-dC treatment: −1.24 fold
[2]; NPTX2, Hs766T
  Fold-change after 5Aza-dC treatment: −2.6 fold
[2]; PAX6, Hs766T
  Fold-change after 5Aza-dC treatment: 1.36 fold
[2]; PDYN, Hs766T
  Fold-change after 5Aza-dC treatment: 6.38 fold
[2]; PLAT, Hs766T
  Fold-change after 5Aza-dC treatment: −1.73 fold
[2]; PLEK2, Hs766T
  Fold-change after 5Aza-dC treatment: 1.12 fold
[2]; SARP2, Hs766T
  Fold-change after 5Aza-dC treatment: 1.35 fold
[2]; SMARCA1, Hs766T
  Fold-change after 5Aza-dC treatment: −0.79 fold
[2]; ST14, Hs766T
  Fold-change after 5Aza-dC treatment: −4.72 fold
[2]; TIMP3, Hs766T
  Fold-change after 5Aza-dC treatment: −3.67 fold
[2]; TJP2, Hs766T
  Fold-change after 5Aza-dC treatment: −1.56 fold
[2]; TNF, Hs766T
  Fold-change after 5Aza-dC treatment: −4.9 fold
[2]; UCHL1, Hs766T
  Fold-change after 5Aza-dC treatment: 1.45 fold
[2]; WNT7A, Hs766T
  Fold-change after 5Aza-dC treatment: 9.03 fold
[2]; XAGE-1, Hs766T
  Fold-change after 5Aza-dC treatment: −0.5 fold
[2]; granulocytemacrophage colony-stimulating factor (M11734), Hs766T
  Fold-change after 5Aza-dC treatment: 5.53 fold
[2]; interferon, alpha-inducible protein (NM_022873), Hs766T
  Fold-change after 5Aza-dC treatment: −4.46 fold
[2]; p53-induced protein (PIGII), Hs766T
  Fold-change after 5Aza-dC treatment: 1.04 fold
[2]; reprimo, Hs766T
  Fold-change after 5Aza-dC treatment: 6.65 fold
[2]; stratifin (14-3-3 sigma), Hs766T
  Fold-change after 5Aza-dC treatment: −1.64 fold
[2]; stromal antigen 3 (STAG5), Hs766T
  Fold-change after 5Aza-dC treatment: 1.01 fold
[2]; testin, Hs766T
  Fold-change after 5Aza-dC treatment: 1.6 fold
